Experimental findings from patent US20240050477A1, “LIPID NANOPARTICLE” (NATIONAL UNIVERSITY CORPORATION HOKKAIDO UNIVERSITY, priority 2021, published 2024) are described below.

The nature of data set [1]: pKa of lipid nanoparticle measured using TNS. The class given is physicochemical. As to conditions: apparent pKa of the pH-sensitive cationic lipid constituting a lipid nanoparticle. Here is the method: The pKa of lipid nanoparticles was measured using […] (TNS). TNS (final concentration: 0.75 mM) and the lipid nanoparticles (final concentration: 30 mM) were first mixed in a buffer solution adjusted to each pH. The fluorescence intensity of the prepared mixed solution was measured using a microplate reader.

For data set [2], the system named is GAPDH mRNA in NK-92 cells. The data set is described as follows: GAPDH gene knockdown activity of siGAPDH-encapsulated lipid nanoparticle in NK-92 cells (RT-qPCR). The class given is cell-based, human. Conditions: siGAPDH-encapsulated LNP, siRNA 10-90 nM, 24 hours after transfection. Here is the method: A NK cell line (NK-92 or NK-92MI) was transfected with each lipid nanoparticle. The knockdown activity of the siGAPDH- or siSMAD3-encapsulated lipid nanoparticle was examined by RT-qPCR using RNA extracted from the cells 24 hours later as a template.
First, the NK cell line was recovered into a 50 mL tube and centrifuged (130×g, 4° C., 5 min). The supernatant was removed, and the cells were suspended in 10 mL of a culture medium (Opti-MEM), counted, and then resuspended into 4×10^6 cells/mL in a culture medium. […]
The cells were recovered into a 1.5 mL tube from each well and centrifuged (800×g, 4° C., 3 min). […] Then, absorbance was measured using micro-volume spectrophotometer “Nano drop” (manufactured by Thermo Fisher Scientific Inc.) to measure the concentration and purity of the RNA.
Reverse-transcription reaction was performed with the recovered RNA as a template using an oligo dT primer and a random primer (6 mars) in a kit for reverse-transcription reaction (“PrimeScript RT reagent kit”, manufactured by Takara Bio Inc.). Then, a GAPDH or SMAD3 mRNA level was measured by real-time PCR with the obtained cDNA as a template using relative quantification based on the ΔΔCt method and β-actin (ACTB) as an endogenous gene. […]

As for `CCCCCCCC/C=C\CCCCCCCC(=O)OCCCCCCC(O)(CCCCCCOC(=O)CCCCCCC/C=C\CCCCCCCC)CCCCN(C)C` [CL1H6], the pKa in data set [1] turned out to be 8.2. Further, the “GAPDH gene knockdown activity ([GAPDH mRNA level]/[ACTB mRNA level])” value in data set [2] is on record as “high gene knockdown activity at a small content ratio”.

Regarding `CCCCCCCC/C=C\CCCCCCCC(=O)OCCCCCCC(O)(CCCCCCOC(=O)CCCCCCC/C=C\CCCCCCCC)CCCCN(CCC)CCC` [CL4H6], the pKa in data set [1] turned out to be 6.35.

For the compound `CCCCCCCC/C=C\CCCCCCCC(=O)OCCCCCCC(O)(CCCCCCOC(=O)CCCCCCC/C=C\CCCCCCCC)CCCCOC(=O)C1CCN(C)CC1` [CL15H6], in data set [1], the pKa turned out to be 7.3.

Consider `CCCCC/C=C\C/C=C\CCCCCCCCC(O)(CCCCCCCC/C=C\C/C=C\CCCCC)CCCCN(C)C` [YSK12-C4], for which the pKa in data set [1] came to 8.2.

Usually pKa stands for the pH at which an ionisable group is half protonated.
